Experimental data as given in patent publication US7935687B2, “Methods for treating spinal muscular atrophy using tetracycline compounds” (Paratek Pharmaceuticals, Inc., priority 2007, dated 2011).
One block for each molecule: values may come before it.

Key:
S. aureus (SA RN450) = assay: Antibacterial MIC, gram positive; type: cell-based; conditions: CLSI methodology, 35° C., 18-24 hours
E. coli (EC D1-209) = assay: Antibacterial MIC, gram negative; type: cell-based; conditions: CLSI methodology, 35° C., 18-24 hours
[1] = Brain-penetrating ability, brain:plasma ratio; type: in vivo, Male CD1 mice; conditions: iv; for Ratio of Brain to Plasma Levels (at T = 3 hours, %): mouse, in vivo, 5 mg/kg
Experimental: Male CD1 mice were administered various tetracycline compounds (i.v. at a dose of 5 mg/kg). After 15 minutes, 1 hour and 3 hours post-dose, 3 mice were sacrificed, exsanguinated, and brains harvested and snap frozen. Blood was centrifuged and the plasma removed and frozen.

SMN2 mRNA = assay: In vitro cell-free splicing assay for inclusion of exon 7; type: biochemical; conditions: HeLa cell nuclear extract, 30° C., 3 hours
Outline: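 ^32P-labelled SMN2 minigene pre-mRNA (exon 6 to part of exon 8; 10 fmol) spliced 3 h at 30 °C in 30% HeLa nuclear extract with 0.5 mM ATP, 1.56 mM MgCl2, pH 7.4, plus compound or buffer. Exon 7 inclusion quantified by denaturing PAGE and phosphorimaging. Emax is maximal % inclusion and Cmax the lowest concentration (μM) reaching it, reported as binned grades.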

[2] = system: 3813 SMA patient-derived fibroblast cells; assay: In vitro gems assay; type: cell-based, Human; conditions: 1 mM, SMA patient line
Experimental: The following example illustrates how tetracycline compound of the invention increase gems in vitro. A glass cover slide was added into each well of 6 well plates and 1×10^4 cells (3813 SMA patient-derived fibroblast cells or 3814 unaffected family member-derived fibroblast cells) in 2 mL were added. After approximately 6 hours, the medium was changed and the desired compound was added to the appropriate well at indicated concentrations. After 12 hours, the medium was changed and the desired compound was added to the appropriate well again. After 24 hours, one set of slides was fixed and the medium was changed and the desired compound was added to the appropriate well again. After 36 hours, the medium was changed and the desired compound was added to the appropriate well again. Another set of cells were fixed on the slides at 48 hours.
Immunofluorescence staining of the cells was performed by washing the cells 2 times with PBS (phosphate buffered saline) and fixing the cells on slides in 4% paraformaldehyde for 10 minutes on ice. The cells were washed 3 times for 5 minutes with PBS, then were permeabilized on the cover slip with 0.2% TritonX, 0.5% BSA in PBS and incubated for 5 minutes on ice. […] The cells were again washed 2 times for five minutes with PBS, mounted on slides with Molecular Probes Prolong Antifade kit, dried and analyzed with Axioskop widefield fluourescence microscope.

- Ratio of Brain to Plasma Levels (at T = 3 hours, %) [1]: 50.7%
SMILES: COCCN(C)CC(=O)c1ccc(O)c2c1CC1CC3C(N(C)C)C(O)=C(C(N)=O)C(=O)C3(O)C(O)=C1C2=O (stereo not shown) [BO]
- MIC Gram Positive (SA RN450) (S. aureus (SA RN450)): *** (Good antibacterial activity (e.g., less than about 4 μg/mL))
- MIC Gram Negative (EC D1-209) (E. coli (EC D1-209)): * (weak antibacterial activity (greater than about 8 μg/mL))

- Kp at 3 h ([1]; male, CD1, mouse, brain and plasma, i.v. 5 mg/kg, 3 hours post-dose, read-out: Ratio of Brain to Plasma Levels (at T = 3 hours, %)): 1.28
SMILES: CN(C)c1ccc(O)c2c1C[C@H]1C[C@H]3[C@H](N(C)C)C(O)=C(C(N)=O)C(=O)[C@@]3(O)C(O)=C1C2=O [Minocycline, minocycline, reference compound]

- Ratio of Brain to Plasma Levels (at T = 3 hours, %) [1]: 41.6%
SMILES: CN(C)C1C(O)=C(C(N)=O)C(=O)C2(O)C(O)=C3C(=O)c4c(O)ccc(-c5cccc(CCCN6CCCCC6)c5)c4CC3CC12 (stereo not shown) [BN]
- MIC Gram Positive (SA RN450) (S. aureus (SA RN450)): *** (Good antibacterial activity (e.g., less than about 4 μg/mL))
- MIC Gram Negative (EC D1-209) (E. coli (EC D1-209)): ** (modest antibacterial activity (between about 4 and 8 μg/mL))
- Cmax (lowest compound concentration at which the maximum exon 7 inclusion occurs) (SMN2 mRNA): *** (concentrations of less than 10 μM)
- Emax (maximum percentage exon 7 inclusion observed) (SMN2 mRNA): *** (values greater than 20%)

SMILES: CCCC(CCC)C(=O)O [valproic acid]
- increase in the number of gems/100 cells [2]: 1.7 fold

SMILES: CN(C)C1C(O)=C(C(N)=O)C(=O)C2(O)C(O)=C3C(=O)c4c(O)ccc(-c5cccc(CCCO)c5)c4CC3CC12 (stereo not shown) [CM]
- MIC Gram Positive (SA RN450) (S. aureus (SA RN450)): *** (Good antibacterial activity (e.g., less than about 4 μg/mL))
- MIC Gram Negative (EC D1-209) (E. coli (EC D1-209)): * (weak antibacterial activity (greater than about 8 μg/mL))
- Cmax (lowest compound concentration at which the maximum exon 7 inclusion occurs) (SMN2 mRNA): *** (concentrations of less than 10 μM)
- Emax (maximum percentage exon 7 inclusion observed) (SMN2 mRNA): ** (values of 10-20%)

SMILES: CC(=O)NCCNC(=O)c1cccc(-c2ccc(O)c3c2CC2CC4C(N(C)C)C(O)=C(C(N)=O)C(=O)C4(O)C(O)=C2C3=O)c1 (stereo not shown) [S]
- MIC Gram Positive (SA RN450) (S. aureus (SA RN450)): *** (Good antibacterial activity (e.g., less than about 4 μg/mL))
- MIC Gram Negative (EC D1-209) (E. coli (EC D1-209)): * (weak antibacterial activity (greater than about 8 μg/mL))
- Cmax (lowest compound concentration at which the maximum exon 7 inclusion occurs) (SMN2 mRNA): * (concentrations of greater than 40 μM)
- Emax (maximum percentage exon 7 inclusion observed) (SMN2 mRNA): ** (values of 10-20%)

SMILES: CNCCNC(=O)c1cccc(-c2ccc(O)c3c2CC2CC4C(N(C)C)C(O)=C(C(N)=O)C(=O)C4(O)C(O)=C2C3=O)c1 (stereo not shown) [M]
- MIC Gram Positive (SA RN450) (S. aureus (SA RN450)): ** (modest antibacterial activity (between about 4 and 8 μg/mL))
- MIC Gram Negative (EC D1-209) (E. coli (EC D1-209)): * (weak antibacterial activity (greater than about 8 μg/mL))
- Cmax (lowest compound concentration at which the maximum exon 7 inclusion occurs) (SMN2 mRNA): ** (concentrations between 40 and 10 μM)
- Emax (maximum percentage exon 7 inclusion observed) (SMN2 mRNA): *** (values greater than 20%)

SMILES: CN(C)C1C(O)=C(C(N)=O)C(=O)C2(O)C(O)=C3C(=O)c4c(O)ccc(-c5cccc(C(=O)NCCN6CCCCC6)c5)c4CC3CC12 (stereo not shown) [U]
- MIC Gram Positive (SA RN450) (S. aureus (SA RN450)): *** (Good antibacterial activity (e.g., less than about 4 μg/mL))
- MIC Gram Negative (EC D1-209) (E. coli (EC D1-209)): ** (modest antibacterial activity (between about 4 and 8 μg/mL))
- Cmax (lowest compound concentration at which the maximum exon 7 inclusion occurs) (SMN2 mRNA): ** (concentrations between 40 and 10 μM)
- Emax (maximum percentage exon 7 inclusion observed) (SMN2 mRNA): ** (values of 10-20%)

SMILES: CCN(CC)CCNC(=O)c1cccc(-c2ccc(O)c3c2CC2CC4C(N(C)C)C(O)=C(C(N)=O)C(=O)C4(O)C(O)=C2C3=O)c1 (stereo not shown) [O]
- MIC Gram Positive (SA RN450) (S. aureus (SA RN450)): ** (modest antibacterial activity (between about 4 and 8 μg/mL))
- MIC Gram Negative (EC D1-209) (E. coli (EC D1-209)): * (weak antibacterial activity (greater than about 8 μg/mL))
- Cmax (lowest compound concentration at which the maximum exon 7 inclusion occurs) (SMN2 mRNA): ** (concentrations between 40 and 10 μM)
- Emax (maximum percentage exon 7 inclusion observed) (SMN2 mRNA): * (percentage inclusion values of less than 10%)

SMILES: CN(C)C1C(O)=C(C(N)=O)C(=O)C2(O)C(O)=C3C(=O)c4c(O)ccc(-c5cccc(C(=O)NCCO)c5)c4CC3CC12 (stereo not shown) [CK]
- MIC Gram Positive (SA RN450) (S. aureus (SA RN450)): *** (Good antibacterial activity (e.g., less than about 4 μg/mL))
- MIC Gram Negative (EC D1-209) (E. coli (EC D1-209)): * (weak antibacterial activity (greater than about 8 μg/mL))
- Cmax (lowest compound concentration at which the maximum exon 7 inclusion occurs) (SMN2 mRNA): ** (concentrations between 40 and 10 μM)
- Emax (maximum percentage exon 7 inclusion observed) (SMN2 mRNA): ** (values of 10-20%)

SMILES: CN(C)CCNC(=O)c1ccc(O)c2c1CC1CC3C(N(C)C)C(O)=C(C(N)=O)C(=O)C3(O)C(O)=C1C2=O (stereo not shown) [AH]
- MIC Gram Positive (SA RN450) (S. aureus (SA RN450)): * (weak antibacterial activity (greater than about 8 μg/mL))
- MIC Gram Negative (EC D1-209) (E. coli (EC D1-209)): * (weak antibacterial activity (greater than about 8 μg/mL))
- Cmax (lowest compound concentration at which the maximum exon 7 inclusion occurs) (SMN2 mRNA): ** (concentrations between 40 and 10 μM)
- Emax (maximum percentage exon 7 inclusion observed) (SMN2 mRNA): * (percentage inclusion values of less than 10%)

- MIC (S. aureus (SA RN450); Staphylococcus aureus): < 4 µg/mL
- MIC (E. coli (EC D1-209); Escherichia coli): > 8 µg/mL
SMILES: CCN(CC)CCNC(=O)c1cccc(-c2ccc(O)c3c2C[C@H]2C[C@H]4[C@H](N(C)C)C(O)=C(C(N)=O)C(=O)[C@@]4(O)C(O)=C2C3=O)c1 [Compound E, (4S,4aS,5aR,12aS)-7-[3-(2-Diethylamino-ethylcarbamoyl)-phenyl]-4-dimethylamino-3,10,12,12a-tetrahydroxy-1,11-dioxo-1,4,4a,5,5a,6,11,12a-octahydro-naphthacene-2-carboxylic Acid Amide]
- Cmax (lowest compound concentration at which the maximum exon 7 inclusion occurs) (SMN2 mRNA): ** (concentrations between 40 and 10 μM)
- Emax (maximum percentage exon 7 inclusion observed) (SMN2 mRNA): *** (values greater than 20%)

SMILES: COc1ccc(CNCc2ccc(-c3ccc(O)c4c3CC3CC5C(N(C)C)C(O)=C(C(N)=O)C(=O)C5(O)C(O)=C3C4=O)cc2)cc1 (stereo not shown) [AW]
- MIC Gram Positive (SA RN450) (S. aureus (SA RN450)): *** (Good antibacterial activity (e.g., less than about 4 μg/mL))
- MIC Gram Negative (EC D1-209) (E. coli (EC D1-209)): *** (Good antibacterial activity (e.g., less than about 4 μg/mL))
- Cmax (lowest compound concentration at which the maximum exon 7 inclusion occurs) (SMN2 mRNA): *** (concentrations of less than 10 μM)
- Emax (maximum percentage exon 7 inclusion observed) (SMN2 mRNA): ** (values of 10-20%)

SMILES: CN(C)CCCCNC(=O)c1cccc(-c2ccc(O)c3c2CC2CC4C(N(C)C)C(O)=C(C(N)=O)C(=O)C4(O)C(O)=C2C3=O)c1 (stereo not shown) [CL]
- MIC Gram Positive (SA RN450) (S. aureus (SA RN450)): ** (modest antibacterial activity (between about 4 and 8 μg/mL))
- MIC Gram Negative (EC D1-209) (E. coli (EC D1-209)): * (weak antibacterial activity (greater than about 8 μg/mL))
- Cmax (lowest compound concentration at which the maximum exon 7 inclusion occurs) (SMN2 mRNA): ** (concentrations between 40 and 10 μM)
- Emax (maximum percentage exon 7 inclusion observed) (SMN2 mRNA): *** (values greater than 20%)

SMILES: CN(C)C1C(O)=C(C(N)=O)C(=O)C2(O)C(O)=C3C(=O)c4c(O)ccc(C(=O)CNCc5cccn5C)c4CC3CC12 (stereo not shown) [CE]
- MIC Gram Positive (SA RN450) (S. aureus (SA RN450)): *** (Good antibacterial activity (e.g., less than about 4 μg/mL))
- MIC Gram Negative (EC D1-209) (E. coli (EC D1-209)): * (weak antibacterial activity (greater than about 8 μg/mL))
- Cmax (lowest compound concentration at which the maximum exon 7 inclusion occurs) (SMN2 mRNA): *** (concentrations of less than 10 μM)
- Emax (maximum percentage exon 7 inclusion observed) (SMN2 mRNA): ** (values of 10-20%)

SMILES: CN(Cc1cccnc1)Cc1cccc(-c2ccc(O)c3c2CC2CC4C(N(C)C)C(O)=C(C(N)=O)C(=O)C4(O)C(O)=C2C3=O)c1 (stereo not shown) [BJ]
- MIC Gram Positive (SA RN450) (S. aureus (SA RN450)): *** (Good antibacterial activity (e.g., less than about 4 μg/mL))
- MIC Gram Negative (EC D1-209) (E. coli (EC D1-209)): * (weak antibacterial activity (greater than about 8 μg/mL))
- Cmax (lowest compound concentration at which the maximum exon 7 inclusion occurs) (SMN2 mRNA): *** (concentrations of less than 10 μM)
- Emax (maximum percentage exon 7 inclusion observed) (SMN2 mRNA): ** (values of 10-20%)
